Test systems include NCI-H522; SK-MEL-2; A498; SNB-19; SF-295; HT-29; Hs-578T; OVCAR-5; SF-539; NCI-H460; ACHN; OVCAR-3; A549; KM12; SNB-75; UACC-62; CCRF-CEM; DU-145; Malme-3M.
Common to all, as to test: growth of human tumour cells (NCI), 48 h

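48-hour exposure; five concentrations; linearly interpolated endpoints. GI50 is the concentration that inhibits growth by half.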 Activity calls are given as the source filed them. Rule as the data show it: active = GI50 up to about 1.1 µM and inactive = higher.

Regarding `COc1ccc(NCc2cnc3nc(N)nc(N)c3c2C)cc1`, the GI50 was 5.52 µM (inactive) with NCI-H522; > 100 µM (inactive) in the experiment with SK-MEL-2; > 100 µM (inactive) in the experiment with A498; 21 µM (inactive) in the experiment with SNB-19; 0.41 µM (active) with SF-295; 0.406 µM (active) in the experiment on HT-29. For the same compound, the GI50 was 59.8 µM (inactive) in the experiment on Hs-578T; 3.87 µM (inactive) in the experiment with OVCAR-5; 0.7 µM (active) in the experiment on SF-539; 0.433 µM (active) in the experiment on NCI-H460; 0.56 µM (active) with ACHN; 28.4 µM (inactive) in the experiment on OVCAR-3. Moreover, the GI50 in the experiment on A549 was 0.303 µM (active); with KM12, 6.41 µM (inactive); in the experiment on SNB-75, 52 µM (inactive); in the experiment with UACC-62, 0.274 µM (active); with CCRF-CEM, 0.57 µM (active); in the experiment on DU-145, 0.718 µM (active).

For `COC(=O)C(NC(=O)C(CC(=O)OC(C)(C)C)NC(=O)OC(C)(C)C)C(O)c1ccccc1` (configuration not stated), the GI50 with NCI-H522, in the experiment on SK-MEL-2, in the experiment with A498, in the experiment on Malme-3M, in the experiment on SNB-19 and in the experiment with HT-29 was > 100 µM (inactive) throughout. Besides, the GI50 in the experiment with Hs-578T, in the experiment on OVCAR-5, in the experiment with SF-539, with NCI-H460, in the experiment on ACHN and in the experiment on OVCAR-3 was > 100 µM (inactive) each time. The GI50 with A549 was > 100 µM (inactive); in the experiment with KM12, > 100 µM (inactive); in the experiment on SNB-75, > 100 µM (inactive); in the experiment with UACC-62 it was 3.92 µM (inactive); in the experiment with CCRF-CEM, > 100 µM (inactive); in the experiment with DU-145 it was > 100 µM (inactive).

For the compound `CC(C)(C)OC(=O)n1cc(C2CNC(=O)C23CCC(=O)N3Cc2ccccc2)c2ccccc21` (configuration not stated), the GI50 in the experiment with NCI-H522 is 17.8 µM (inactive); with SK-MEL-2, 17.2 µM (inactive); with A498 it was 20 µM (inactive); in the experiment on Malme-3M, 21.9 µM (inactive); in the experiment with SNB-19, 33.3 µM (inactive); in the experiment on SF-295, 17.7 µM (inactive). The GI50 with HT-29 was 19.1 µM (inactive); with Hs-578T it was 29.9 µM (inactive); with OVCAR-5, 19.5 µM (inactive); in the experiment with SF-539, 19.4 µM (inactive); in the experiment on NCI-H460, 20.7 µM (inactive); in the experiment with OVCAR-3 it was 19.2 µM (inactive). Further, the GI50 is 18.7 µM (inactive) with A549; 25.5 µM (inactive) in the experiment on KM12; 18.1 µM (inactive) in the experiment on SNB-75; 17.5 µM (inactive) in the experiment on UACC-62; 25.9 µM (inactive) in the experiment on CCRF-CEM; 20.4 µM (inactive) in the experiment on DU-145.

Consider `COc1ccc(C(=O)C#Cc2cnc(OC)nc2OC)cc1`, for which the GI50 in the experiment with NCI-H522 is 1.39 µM (inactive); in the experiment on SK-MEL-2 it was 1.42 µM (inactive); in the experiment with A498, 18.7 µM (inactive); in the experiment with Malme-3M it was 1.67 µM (inactive); in the experiment with SNB-19, 12.2 µM (inactive); with SF-295, 12.4 µM (inactive). For the same compound, the GI50 in the experiment on HT-29 was 1.22 µM (inactive); in the experiment with Hs-578T it was 4.07 µM (inactive); in the experiment on OVCAR-5 it was 1.64 µM (inactive); in the experiment with NCI-H460 it was 2.65 µM (inactive); with ACHN, 1.5 µM (inactive); in the experiment with OVCAR-3, 1.68 µM (inactive). The GI50 in the experiment with A549 was 4.17 µM (inactive); in the experiment on KM12, 2.68 µM (inactive); with SNB-75 it was 2.22 µM (inactive); with UACC-62, 1.11 µM (active); in the experiment on CCRF-CEM it was 0.13 µM (active); in the experiment on DU-145, 2.31 µM (inactive).

With `CCCCC(/C=C\COC1CCCCO1)=C/C(=O)OCC` (configuration not stated), the GI50 in the experiment with NCI-H522 is 30.5 µM (inactive); in the experiment with SK-MEL-2, > 100 µM (inactive); in the experiment with A498, > 100 µM (inactive); with Malme-3M, > 100 µM (inactive); in the experiment with SNB-19, 98.2 µM (inactive); in the experiment with SF-295, 44.4 µM (inactive). Further, the GI50 in the experiment on HT-29 is 38.4 µM (inactive); with Hs-578T, 83.9 µM (inactive); in the experiment with OVCAR-5 it was > 100 µM (inactive); in the experiment on SF-539 it was 14.3 µM (inactive); with NCI-H460 it was 98.6 µM (inactive); in the experiment on ACHN, > 100 µM (inactive). Besides, the GI50 is 52.7 µM (inactive) in the experiment with OVCAR-3; 56.6 µM (inactive) in the experiment with A549; 46.6 µM (inactive) in the experiment on KM12; 48.8 µM (inactive) in the experiment on SNB-75; 55.7 µM (inactive) with UACC-62; 33.8 µM (inactive) in the experiment on CCRF-CEM. In addition, in the experiment with DU-145, the GI50 is > 100 µM (inactive).

For the compound `O/N=C1/Nc2cc(Cl)ccc2C(=S)N2CSCC12` (configuration not stated), the GI50 in the experiment with NCI-H522, in the experiment on SK-MEL-2, in the experiment on A498, in the experiment on Malme-3M, in the experiment with SNB-19 and in the experiment on SF-295 was > 100 µM (inactive) in each case. For the same compound, the GI50 in the experiment on HT-29, in the experiment on Hs-578T, with OVCAR-5, in the experiment with NCI-H460, with ACHN and in the experiment on OVCAR-3 was > 100 µM (inactive) in each case. The GI50 in the experiment with A549, in the experiment on KM12, in the experiment with SNB-75, with UACC-62, in the experiment on CCRF-CEM and in the experiment with DU-145 was > 100 µM (inactive) each time.

Take `CC(=O)Nc1c(S(=O)(=O)c2ccccc2)c(C)c(C)n1Cc1ccccc1`: the GI50 in the experiment with NCI-H522, in the experiment on SK-MEL-2, with A498, in the experiment on Malme-3M, in the experiment with SNB-19 and in the experiment on SF-295 was > 100 µM (inactive) throughout. Also, the GI50 in the experiment on HT-29 is > 100 µM (inactive); in the experiment with Hs-578T, > 100 µM (inactive); with OVCAR-5, > 100 µM (inactive); with NCI-H460, > 100 µM (inactive); in the experiment with ACHN it was > 100 µM (inactive); with OVCAR-3, 52.8 µM (inactive). Besides, the GI50 in the experiment with A549 was > 100 µM (inactive); in the experiment with KM12, 49.2 µM (inactive); in the experiment with SNB-75, > 100 µM (inactive); in the experiment with UACC-62, > 100 µM (inactive); in the experiment with CCRF-CEM, > 100 µM (inactive); in the experiment on DU-145 it was > 100 µM (inactive).

In the case of `CCCCCc1cc2cc3c(c(O)c2c(=O)[nH]1)C1(CCC3)C(=O)c2c(O)ccc(O)c2C1=O`, the GI50 is > 100 µM (inactive) in the experiment with NCI-H522; 66.7 µM (inactive) with SK-MEL-2; > 100 µM (inactive) in the experiment with A498; > 100 µM (inactive) in the experiment with Malme-3M; > 100 µM (inactive) with SNB-19; > 100 µM (inactive) with SF-295. The GI50 in the experiment with HT-29, with Hs-578T, in the experiment with OVCAR-5, in the experiment on SF-539, in the experiment on NCI-H460 and in the experiment with ACHN was > 100 µM (inactive) throughout. Besides, the GI50 was > 100 µM (inactive) with OVCAR-3; > 100 µM (inactive) in the experiment on A549; > 100 µM (inactive) with KM12; 58.2 µM (inactive) in the experiment with SNB-75; > 100 µM (inactive) in the experiment on CCRF-CEM; > 100 µM (inactive) in the experiment with DU-145.

Take `COC(=O)[C@H](Cc1ccccc1)NC(=O)N(CCN(CCC#N)C(=O)N[C@H](C(=O)OC)C(C)C)c1ccccc1`: the GI50 in the experiment on NCI-H522 was 30.3 µM (inactive); in the experiment on SK-MEL-2 it was 41.8 µM (inactive); in the experiment on A498, > 100 µM (inactive); in the experiment on Malme-3M it was 43.7 µM (inactive); in the experiment on SNB-19, > 100 µM (inactive); in the experiment with SF-295, > 100 µM (inactive). For the same compound, the GI50 with Hs-578T, in the experiment with OVCAR-5, in the experiment on SF-539, in the experiment with ACHN, with OVCAR-3 and in the experiment on A549 was > 100 µM (inactive) each time. Besides, the GI50 with KM12 is > 100 µM (inactive); in the experiment on SNB-75, > 100 µM (inactive); in the experiment on UACC-62 it was 48.5 µM (inactive); in the experiment with CCRF-CEM, 33.7 µM (inactive); in the experiment with DU-145, > 100 µM (inactive).

Turning to `COC12c3ccccc3-c3ccccc3C1[C@@H](C(=O)O)[C@H]2C(=O)O` (some centres not stated), the GI50 in the experiment with NCI-H522, with SK-MEL-2, in the experiment with A498, with Malme-3M, with SNB-19 and in the experiment on SF-295 was > 10 µM (inactive) in each case. In addition, the GI50 with HT-29, with Hs-578T, in the experiment on OVCAR-5, in the experiment on SF-539, in the experiment with NCI-H460 and in the experiment on ACHN was > 10 µM (inactive) each time. For the same compound, the GI50 in the experiment on OVCAR-3, in the experiment with KM12, in the experiment with SNB-75, with CCRF-CEM and in the experiment on DU-145 was > 10 µM (inactive) each time.

With `O=C(CCCn1ccnc1[N+](=O)[O-])NCCn1cnc([N+](=O)[O-])n1`, the GI50 with NCI-H522, in the experiment with SK-MEL-2, in the experiment on A498, in the experiment on Malme-3M, in the experiment with SF-295 and in the experiment with HT-29 was > 100 µM (inactive) throughout. Besides, the GI50 in the experiment with Hs-578T, in the experiment on OVCAR-5, in the experiment on SF-539, in the experiment with NCI-H460, with ACHN and in the experiment with OVCAR-3 was > 100 µM (inactive) in each case. For the same compound, the GI50 in the experiment on A549, in the experiment on KM12, in the experiment with SNB-75, in the experiment on UACC-62, in the experiment on CCRF-CEM and in the experiment with DU-145 was > 100 µM (inactive) each time.

For the origin of these results see ChEMBL document CHEMBL1201862, “PubChem BioAssay data set” (2004).
